In patent publication US20240199698A1, “PEPTIDE AMPHIPHILE COMPOSITIONS AND METHODS OF USE THEREOF” (UAB RESEARCH FOUNDATION, priority 2022, published 2024):

Columns and labels:
HAECs = assay: hAEC proliferation, CyQUANT Cell Proliferation Assay; assay type: cell-based, human; conditions: sirolimus 0-50 nM, with or without 10 -9 M NO, three days
Description: Preparation of NO. The peptide amphiphiles (PA-C16-CA and PA-C16-K5) were synthesized, respectively. These two distinct PAs were mixed in a 9:1 ratio (YIGSR:KKKKK) to form PA-C16-YK5, which was subsequently reacted with NO gas to form PA-YK-NO. The released NO was collected, and NO concentration was measured using Greiss Assay.
Treatment on hAEC. hAECs were seeded in a 48-well plate at a cell density of 2000 per well and allowed to attach for 24 h (hereafter the “endothelium”). For the sirolimus-only group, the sirolimus at concentrations of 0, 0.25, 0.1, 0.5, 1, and 50 nM were added to the hAECs, and then the hAECs were cultured for another three days. Similarly, for the dual-treatment group, sirolimus at similar concentrations was combined with 10 -9 M NO and added to hAEC. Then, the proliferation of hAEC under different conditions was assessed by CyQUANT Cell Proliferation Assay after three days. Briefly, the culture medium in each well was removed, and the cells in the tissue culture plate were frozen overnight at −80° C.; then, the dye in the lysis buffer was added after completely thawing at room temperature. After 30 min incubation, the fluorescent signal was measured using a microplate reader at 485/528 nm.

[1] = cited from earlier work
[2] = tested on: patients with myocardial infarction or chronic coronary disease; conditions: cited from earlier work
U937 cells = assay: Effects of colchicine on foam cell formation (Bodipy); assay type: cell-based; conditions: tested 0, 2, 5, 10, 20, 40 nM; Ox-LDL 100 ug/mL, 3 days
Description: Experimental approach: U937 cells with a cell density of 5000 cell/well were seeded in a 48 well plate, then the colchicine with a selected concentration range from 0 to 40 nM, that is 0, 2 nM, 5 nM, 10 nM, 20 nM, and 40 nM, were added into each well-containing monocytes and RAMPI monocyte culture medium. Then each well were added with M-CSF (100 ng/mL), GM-CSF (25 ng/mL) and INF-γ (100 ng/mL) for macrophage formation. After 7 days of culture, then Ox-LDL (100 ug/mL) was added to each well and cultured for 3 days. After 3 days of culture, the effect of […] on foam cell formation was assessed by using Bodipy. It was shown that the suppression of foam cells was observed when the colchicine concentration is above 2 nM, that is, at the concentrations of 5 nM, 10 nM, 20 nM, and 40 nM (FIG. 18B)

[3] = tested on: diseased hAECs (TNF-α stimulated); assay: Effects of colchicine on diseased EC function (NO production, DAF-FM); assay type: cell-based, human; conditions: tested 10, 20, 40, 80, 160 nM; three days; versus diseased hAECs without colchicine
Description: Experiment approach: hAECs were seeded in 48-well plate at a cell density of 5000 per well and allowed to attach and grow for 24 h to create a stable confluent monolayer of hAECs (hereafter the “endothelium”). Then, the diseased hAECs (“diseased endothelium”) were obtained by stimulating the hAECs with TNF-α (20 ng/mL) for 18 hours. After that, the colchicine at concentrations of 10 nM, 20 nM, 40 nM, 80 nM, and 160 nM was added to the hAECs after TNF-α stimulation, and then the hAECs were cultured for another three days. Then, the diseased hAEC function was assessed by measuring NO production by hAECs using DAF-FM (4-amino-5-methylamino-2′,7′-difluororescein). DAF-FM is essentially nonfluorescent until they react with NO to form a fluorescent benzotriazole. DAF-FM is cell-permeant and passively diffuses across cellular membranes. Once inside cells, it is de-acetylated by intracellular esterases. The fluorescence quantum yield of DAF-FM is —0.005, but increases about 160-fold, to ˜0.81, after reacting with nitric oxide. With excitation/emission maxima of 495/515 nm, DAF-FM can be detected by any instrument that can detect fluorescein, including fluorescent microplate readers. […] After the de-esterification, the fluorescence intensity of DAF-FM in hAECs was measured at (excitation/emission) 495/515 nm.

SMILES | hAEC proliferation (HAECs) | solubility in water [1] | composite endpoint of cardiovascular death, resuscitated cardiac arrest, myocardial infarction, stroke, or urgent hospitalization for angina (COLCOT) ([2]; 0.5 mg once daily versus placebo, myocardial infarction within 30 days) | risk of acute cardiovascular events (LoDoCo) ([2]; 0.5 mg once daily, chronic coronary disease, open-label) | primary composite endpoint of cardiovascular mortality, myocardial infarction, ischemic stroke, and urgent revascularization (meta-analysis) ([2]; four major randomized controlled trials) | colchicine concentration at which suppression of foam cells was observed (U937 cells) | colchicine concentration at which NO production of diseased hAECs increased [3]
CO[C@H]1C[C@@H]2CC[C@@H](C)[C@@](O)(O2)C(=O)C(=O)N2CCCC[C@H]2C(=O)O[C@H]([C@H](C)C[C@@H]2CC[C@@H](O)[C@H](OC)C2)CC(=O)[C@H](C)/C=C(\C)[C@@H](O)[C@@H](OC)C(=O)[C@H](C)C[C@H](C)/C=C/C=C/C=C/1C [Sirolimus] | reduced the proliferation of hAECs dose-dependently | virtually insoluble in water | – | – | – | – | –
COc1cc2c(c(OC)c1OC)-c1ccc(OC)c(=O)cc1[C@@H](NC(C)=O)CC2 [colchicine, N[5′,6,7,9-tetrahydro-1,2,3,10-tetratmethoxy 9-oxobenzo[a]heptalen-7-yl], (S)-acetamide] | – | – | lower among those who received 0.5 mg of colchicine once daily than among those who received placebo | lower among those who received 0.5 mg of colchicine once daily than those who did not receive colchicine | significant reduction | above 2 nM | above 20 nM
